These results are taken from patent US9982007B2, “Cocrystals of progesterone” (AMRI SSCI, LLC, priority 2012, dated 2018).

The nature of the data set: Powder dissolution. The class given is physicochemical. Conditions: compared to commercially available progesterone.

On to “progesterone:vanillic acid [Cocrystal 1]”, for which the dissolution rate result is on record as “increase in dissolution rate” and the “progesterone concentration over time” value is on record as “sustained progesterone concentration over time”.
